Assay [1] addresses Beta-2 adrenergic receptor (Rattus norvegicus, UniProt P10608).
Assay [2] deals with Beta-1 adrenergic receptor (Rattus norvegicus, UniProt P18090).
In assay [3] the target is 5-hydroxytryptamine receptor 1B (Rattus norvegicus, UniProt P28564).

This is an account of results in BindingDB's records for doi:10.1254/jjp.52.195 (Niigata College of Pharmacy, 1990).

A value given as a limit tells only on which side of the number the result lay.

Chain of Beta-2 adrenergic receptor (P10608 whole entry): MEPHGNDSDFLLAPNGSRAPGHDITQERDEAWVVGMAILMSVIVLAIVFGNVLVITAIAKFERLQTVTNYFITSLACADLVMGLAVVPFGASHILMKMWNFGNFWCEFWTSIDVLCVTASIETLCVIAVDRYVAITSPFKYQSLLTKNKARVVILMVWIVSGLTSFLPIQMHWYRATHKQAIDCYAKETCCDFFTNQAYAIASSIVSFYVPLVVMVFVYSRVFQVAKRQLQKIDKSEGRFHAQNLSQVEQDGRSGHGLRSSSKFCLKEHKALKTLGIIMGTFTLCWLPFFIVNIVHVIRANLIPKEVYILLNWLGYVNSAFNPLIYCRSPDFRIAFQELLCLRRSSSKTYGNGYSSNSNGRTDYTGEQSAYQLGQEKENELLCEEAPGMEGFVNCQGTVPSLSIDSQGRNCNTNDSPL
Chain of 5-hydroxytryptamine receptor 1B (P28564 whole entry): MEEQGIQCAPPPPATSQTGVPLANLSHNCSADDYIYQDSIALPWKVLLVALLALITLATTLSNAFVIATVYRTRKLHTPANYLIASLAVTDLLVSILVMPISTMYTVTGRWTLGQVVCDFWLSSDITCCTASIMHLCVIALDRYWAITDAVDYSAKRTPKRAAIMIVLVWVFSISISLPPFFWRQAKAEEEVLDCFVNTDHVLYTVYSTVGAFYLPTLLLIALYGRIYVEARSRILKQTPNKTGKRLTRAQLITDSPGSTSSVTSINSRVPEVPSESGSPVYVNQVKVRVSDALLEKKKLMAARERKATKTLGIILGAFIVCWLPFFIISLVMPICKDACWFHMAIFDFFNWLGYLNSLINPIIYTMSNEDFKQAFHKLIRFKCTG
Chain of Beta-1 adrenergic receptor (P18090 whole entry): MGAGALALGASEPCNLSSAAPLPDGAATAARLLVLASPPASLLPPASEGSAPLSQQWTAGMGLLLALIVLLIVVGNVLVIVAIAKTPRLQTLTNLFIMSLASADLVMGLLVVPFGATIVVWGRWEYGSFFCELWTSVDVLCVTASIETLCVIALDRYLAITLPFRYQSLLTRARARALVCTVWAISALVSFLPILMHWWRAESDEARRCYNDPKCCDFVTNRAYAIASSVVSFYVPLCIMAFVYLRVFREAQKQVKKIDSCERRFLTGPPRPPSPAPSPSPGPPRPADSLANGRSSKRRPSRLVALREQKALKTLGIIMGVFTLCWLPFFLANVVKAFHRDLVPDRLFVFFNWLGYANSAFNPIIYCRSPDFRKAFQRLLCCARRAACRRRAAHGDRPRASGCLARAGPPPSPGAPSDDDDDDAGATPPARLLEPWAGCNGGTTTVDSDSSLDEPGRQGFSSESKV

As usually defined, the Ki is a dissociation constant, usually derived from enzyme kinetics or from competition with a known ligand. The low end stands for tighter binding, the high end for weaker binding. Regarding `CC(C)CNCC(O)COc1cccc2ccccc12` (stereo not drawn), the results for the inhibitory constant (Ki) in assay [1], in assay [2] and in assay [3] were 2.45 nM, 2.82 nM and 56.2 nM, respectively.
On the same counts, the results for `COc1ccc(OC)c([C@@H](O)[C@H](C)NC(C)(C)C)c1` [CAS_1937-89-9] are 468 nM, 3720 nM and over 10000 nM.
Regarding `COCCc1ccc(OC[C@H](O)CNC(C)C)cc1` [d-Metoprolol], the inhibitory constant (Ki) in assay [3] is over 10000 nM.
For `COCCc1ccc(OC[C@@H](O)CNC(C)C)cc1` [l-Metoprolol], in assay [3], the Ki was over 10000 nM.
Consider `CC(C)NCC(O)c1ccc(NS(C)(=O)=O)cc1` (racemic) [Sotalol,(-)], for which the Ki in assay [3] was over 10000 nM.
In assay [3], `COCCc1ccc(OCC(O)CNC(C)C)cc1` (stereo not drawn) [Betalok] displayed an inhibitory constant (Ki) of over 10000 nM.
With `CC(CCc1ccccc1)NCC(O)c1ccc(O)c(C(N)=O)c1` (stereo not drawn) [2-hydroxy-5-{1-hydroxy-2-[(4-phenylbutan-2-yl)amino]ethyl}benzamide], the Ki came to 12 nM in assay [2] and 2000 nM in assay [3].
Take `CC(=O)Nc1ccc(OCC(O)CNC(C)C)cc1` (stereo not drawn) [Practolol,(-)]: the inhibition constant Ki in assay [2] is 245 nM; in assay [3], over 10000 nM.
In the case of `CC(C)(C)NCC(O)CSc1nc(-c2ccc(C(N)=O)s2)cs1` (stereo not drawn) [CAS_52560-77-7], the values for the inhibition constant Ki in assay [1], in assay [2] and in assay [3] were 0.55 nM, 0.18 nM and 10.7 nM, respectively.
In the case of `Cc1ccc(OC[C@@H](O)[C@H](C)NC(C)C)c2c1CCC2` [ICI 118,551], the values for the inhibition constant (Ki) in assay [2] and in assay [3] were 195 nM and 3890 nM, respectively.
With `C=CCc1ccccc1OC[C@@H](O)CNC(C)C` [ALPRENOLOL,(-)], the inhibitory constant (Ki) in assay [3] came out at 70.8 nM.
`CC(C)NCC(O)COc1cccc2[nH]ccc12` (stereo not drawn) [LB-46]: the Ki in assay [2] was 0.66 nM.
Take `CC(C)NC[C@H](O)COc1ccc(CCOCC2CC2)cc1` [[(2S)-3-{4-[2-(cyclopropylmethoxy)ethyl]phenoxy}-2-hydroxypropyl](propan-2-yl)amine]: the Ki in assay [3] was over 10000 nM.
Take `C=CCOc1ccccc1OCC(O)CNC(C)C` (stereo not drawn): the Ki in assay [1] turned out to be 9.77 nM; in assay [2], 7.76 nM; in assay [3] it was 174 nM.
Consider `COc1ccccc1OCCNCC(O)c1ccc(C)c(S(N)(=O)=O)c1` (stereo not drawn) [CAS_93633-92-2], for which the figures for the inhibition constant Ki in assay [1], in assay [2] and in assay [3] were 13.2 nM, 4.37 nM and 1290 nM, respectively.
